Test results as given in US9883671B2, “Mixture of natural or nature-identical alcohols with improved effectiveness” (L'AIR LIQUIDE, SOCIETE ANONYME POUR L'ETUDE ET …, priority 2012, dated 2018).

Tested on: inoculation solution of test organisms: Staphylococcus aureus, Kocuria rhizophila, Enterobacter gergoviae, Escherichia coli, Klebsiella pneumoniae, Pseudomonas …
Test: Determination of the preserving effect of chemical preservatives in cosmetic formulations (Koko test), Carbopol gel
Format: cell-based, bacteria, yeast and moulds (mixed inoculum, ATCC strains)
Settings: 0.1% by weight; inferred from Experiment 9 compared with Experiment 2
Method: Method A—Determination of the Preserving Effect of Chemical Preservatives in Cosmetic Formulations (Koko Test) The test described below is carried out to determine the preserving effect of chemical preservatives in cosmetic formulations. Using the described method, the aim is to test the effectiveness of chemical preservatives with regard to the pack preservation for cosmetic formulations. For this purpose, the preservatives to be tested are added in various concentrations to the unpreserved samples in different experimental batches. A continuous microbial burden is achieved by periodically inoculating the experimental batches. In parallel to the inoculation, streaks of the individual batches are in each case made immediately beforehand. Assessment is made by reference to the microbial growth of the streaks. […] In each case, 25 g of the cosmetic to be tested are weighed into wide-necked bottles with screw closure (LDPE). […] The preserving effect of the individual product concentrations is assessed in a semi-quantitative method by means of the growth of the individual streaks. […] The sample is well-preserved according to criterion A if it exists under the laboratory conditions given above for a period of six weeks without microbial attack of the sample batches, i.e. no microbial growth can be detected even after the sixth inoculation. […]

With `CCCCCCCCCCCO` [Experiment 1-undecanol, 1-undecanol] the “Preserving effect of the substance by itself, inferred” value was “no effect”.
